The text below walks through data of patent publication US9975860B2, “Anti-angiogenic compounds” (UNIVERSITY COLLEGE DUBLIN—NATIONAL UNIVERSITY OF IRELAND, …, priority 2014, dated 2018).

Entries after “also recorded” stand apart in the source; their conditions may differ.

The test system of data set [1] is primary hyaloid vessels in zebrafish. Kind of data set: Quantification of primary hyaloid vasculature branch number in Tg(fli1:EGFP) zebrafish. Format: in vivo. How it is done:
All experiments were carried out under ethical approval granted by the UCD animal research ethics committee. Tg(fli1:EGFP) zebrafish were maintained according to standard procedures on a 14 hr light/10 hr dark cycle at 28° C. Embryos were obtained by natural spawning and developmental stages established by time and morphological criteria. At 48 hours post fertilisation (hpf), 5 embryos per well were placed in 400 μl of Embryo Medium/0.1% DMSO and incubated with compound (typically, 10 μM) at 28° C. on a 14 h light/10 h dark cycle. At 5 days post fertilisation (dpf), larvae were euthanised, and fixed in 4% PFA at 4° C. overnight before analysis.
Prior to analysis of the intraocular vasculature, the control and treated larvae were observed under an Olympus SZX16 stereo zoom microscope and screened for general malformations. Overall patterning of the vasculature (fin, gut and intersegmental vessels) was examined for abnormalities. Right lenses were dissected from the larvae and transferred to depression slides for observation under epi-fluorescence in the Olympus SZX16. Patterning of the hyaloid vessels on the treated larval lenses was compared to 0.1% DMSO controls and the archetypal pattern previously described (Alvarez et al., 2007; Alvarez et al., 2009). The number of primary vessels radiating from the back of the lens (3-4 main branches at 5 dpf in controls and previously described), was counted and the average number was graphed for each drug.
(§1) All experimental protocols were carried out as per example 1 and 2. Briefly, zebrafish larvae were treated with 10 μM of AT-051/41206012 (chemical name 2-[2-(2-methoxyphenyl)ethenyl]pyrazine) purchased from Specs (The Netherlands). At 6 or 48 hours post fertilisation (hpf), 5 embryos per well were placed in 400 μl of Embryo Medium/0.1% DMSO and incubated with 10 μM AT-051/41206012 at 28° C. on a 14 h light/10 h dark cycle. Larvae were treated from 6-48 hpf (intersegmental vessel study) or from 48 to 120 hpf (primary hyaloid vessel study). At the end of the study, larvae were euthanized and fixed in 4% PFA at 4° C. overnight before analysis.
(§2) The number of intersegmental vessels was counted and the average number was graphed for each drug. Right lenses were dissected from the larvae and transferred to depression slides for observation and the number of primary hyaloid vessels radiating from the back of the lens (3-4 main branches at 5 dpf in controls and previously described), was counted and the average number was graphed for each drug.

The subject of data set [2] is intersegmental vasculature in zebrafish. Kind of data set: Quantification of intersegmental vessel number in zebrafish. In kind it is in vivo. The conditions noted are these: 10 μM; zebrafish embryos treated 6 hpf to 48 hpf. How it is done: At 6 hours post fertilisation, 5 embryos per well were placed in 400 μL of embryo medium/0.1% DMSO and incubated with 10 μM compound at 28° C. on a 14 h light/10 h dark cycle. At 48 hpf larvae were manually dechorionated, euthanised, and fixed in 4% PFA at 4° C. overnight before analysis. The larvae were then washed with PBS and transferred to depression slides for observation under epi-fluorescence in an Olympus SZX16 fluorescent microscope. The number of intersegmental vessels was counted and the average number was graphed for each drug.
as §1, §2

For data set [3], the system named is human retinal (ARPE-19) cells. Kind of data set: MTT cell viability assay in ARPE-19. In kind it is cell-based. The conditions noted are these: 5, 10, 25, 50, 75 or 90 μM, 96 hours. How it is done:
A 3-(4,5-dimethylthiozol-2-yl)-2,5-diphenyltetrazolium bromide (MTT) dye reduction assay was carried out to determine the cytotoxicity of each compound on either human microvascular endothelial cells (HMECs) or human retinal pigmented epithelium cells (ARPE-19). Cells were maintained in a 95% air and 5% CO2 atmosphere at 37° C. in Dulbecco modified Eagle medium (DMEM, Sigma Aldrich) with 10% fetal bovine serum, 2 mM Gibco® L-glutamine and 100 units/ml penicillin, 1 mg/ml streptomycin (Invitrogen) supplementation. On day 1, cells were trypsinized (Trypsin-EDTA 1×) and seeded 1.4×10^4 cells per well of a 96 well plate and incubated overnight. On day 2, cells were serum staved in DMEM with L-glutamine and penicillin-streptomycin supplementation for 24 h. On day 3, cells were drug treated for 24 h (HMECs) or 96 h (ARPE-19 cells) with 0.1% DMSO or 10 μM to 90 μM of each compound 4, 8, 15, 18 or 20, with 4 replicate wells of each compound. After 24-96 h, cells were incubated with […] 5 mg/ml MTT labelling Reagent (Roche) for 2 h. Subsequently, when purple formazan crystals formed cells were incubated with 1× solubilisation solution (Roche) for 4 h and absorbance read at 570 nm using a microplate reader.
(Tetrazolium assays rely on reduction of a dye to a coloured formazan, in cell work by metabolically active cells.)

The subject of data set [4] is mouse aortic ring. Kind of data set: Ex vivo mouse aortic ring assay (sprout formation). The conditions noted are these: 10 μM; C57/BL6 mouse aortic rings in matrigel; vs 0.1% DMSO; hydrochloride. How it is done: Aortae from sex matched C57/BL6 littermates were cleansed of adipose tissue, cut into 2 mm rings and immersed in matrigel. Aortic rings (6 per experiment) were treated with 0.1% DMSO (vehicle control/VC) or with 10 μM of Compound 4, Compound 12, Compound 15 or Compound 20. Sprouts from the perimeter of the aortic ring were counted and quantified as percentage of vehicle control (VC).

Setting [5] is: 10 μM, zebrafish larvae treated 48 hpf to 5 dpf, vs 0.1% DMSO control.
The mark [6] stands for this setting: concentrations below 10 μM (range 1, 2.5, 5, 7.5 and 10 μM tested), zebrafish larvae 48 hpf to 5 dpf.

As for `Cc1ccc(O)c(/C=C/c2cnccn2)c1.Cl` [Compound 14, (E)-4-Methyl-[2-(2-(Pyrazin-2-yl)vinyl)]phenol hydrochloride], the “inhibition of developmental angiogenesis of the hyaloid vasculature (number of primary hyaloid vessels)” value (“inhibition … (number of primary hyaloid vessels)” below) in data set [1] (setting [5]) is given as “inhibit developmental angiogenesis of the zebrafish hyaloid vasculature in a statistically significant manner”.

Consider `Cc1ccc(O)c(/C=C/c2cnccn2)c1` [Compound 13, (E)-4-Methyl-[2-(2-(pyrazin-2-yl)vinyl)]phenol], for which the “inhibition … (number of primary hyaloid vessels)” value in data set [1] (setting [5]) is listed as “inhibit developmental angiogenesis of the zebrafish hyaloid vasculature in a statistically significant manner”.

With `Cl.Oc1ccccc1/C=C/c1ccccn1` [Compound 2, (E)-2-[2-(Pyridin-2-yl)vinyl]phenol hydrochloride], the “inhibition of developmental angiogenesis of intersegmental vessels (number of intersegmental vessels)” value (from here on “inhibition … (number of intersegmental vessels)”) in data set [2] was “inhibit developmental angiogenesis of zebrafish intersegmental vessels in a statistically significant manner”. Besides, the “inhibition … (number of primary hyaloid vessels)” value in data set [1] (setting [5]) and in data set [1] (setting [6]) was “inhibit developmental angiogenesis of the zebrafish hyaloid vasculature in a statistically significant manner” throughout.

Take `Cl.Oc1ccccc1/C=C/c1ncc[nH]1` [Compound 23, (E)-2-(2-(IH-Imidazol-2-yl)vinyl)phenol hydrochloride]: in data set [1] (setting [5]), the “inhibition … (number of primary hyaloid vessels)” value was “inhibit developmental angiogenesis of the zebrafish hyaloid vasculature in a statistically significant manner”.

In the case of `Oc1ccccc1/C=C/c1cnccn1` [Compound 3, (E)-2-[2-(Pyrazin-2-yl)vinyl]phenol], the “inhibition … (number of intersegmental vessels)” value in data set [2] is recorded as “inhibit developmental angiogenesis of zebrafish intersegmental vessels in a statistically significant manner”. The “inhibition … (number of primary hyaloid vessels)” value in data set [1] (setting [5]) and in data set [1] (setting [6]) was “inhibit developmental angiogenesis of the zebrafish hyaloid vasculature in a statistically significant manner” throughout.

`C/C(=C\c1ccccc1O)c1cnccn1` [Compound 11, (E)-2-[2-(Pyrazin-2-yl)prop-1-enyl]phenol]: in data set [1] (setting [5]), the “inhibition … (number of primary hyaloid vessels)” value is recorded as “inhibit developmental angiogenesis of the zebrafish hyaloid vasculature in a statistically significant manner”.

For `COc1ccccc1C#Cc1cnccn1` [Compound 19, 2-[2-(2-Methoxyphenyl)ethynyl]pyrazine], the “inhibition … (number of intersegmental vessels)” value in data set [2] was “inhibit developmental angiogenesis of zebrafish intersegmental vessels in a statistically significant manner”. Further, the “inhibition … (number of primary hyaloid vessels)” value in data set [1] (setting [6]) is “inhibit developmental angiogenesis of the zebrafish hyaloid vasculature in a statistically significant manner”.

As for `Cc1cccc(/C=C/c2ccccc2O)n1.Cl` [Compound 8, (E)-2-[2-(6-Methylpyridin-2-yl)vinyl]phenol hydrochloride], the “cell viability (MTT assay)” value in data set [3] is recorded as “does not affect cell viability”. Besides, the “inhibition … (number of primary hyaloid vessels)” value in data set [1] (setting [5]) and in data set [1] (setting [6]) was “inhibit developmental angiogenesis of the zebrafish hyaloid vasculature in a statistically significant manner” throughout.

With `Cl.Oc1ccccc1/C=C/c1ncccn1` [Compound 15, (E)-2-[2-(Pyrimidin-2-yl)vinyl]phenol hydrochloride], the “angiogenesis (sprout formation) in aortic rings” value in data set [4] was “block angiogenesis (sprout formation); also recorded: inhibit the formation of sprouts in a statistically significant manner”. For the same compound, the “cell viability (MTT assay)” value in data set [3] is listed as “does not affect cell viability”. Also, the “inhibition … (number of primary hyaloid vessels)” value in data set [1] (setting [5]) is given as “inhibit developmental angiogenesis of the zebrafish hyaloid vasculature in a statistically significant manner”.

In the case of `COc1ccccc1/C=C/c1cnccn1` [AT-051/41206012, 2-[2-(2-methoxyphenyl)ethenyl]pyrazine], in data set [2], the “inhibition … (number of intersegmental vessels)” value is listed as “does not inhibit developmental angiogenesis of the intersegmental vessels; also recorded: does not affect the development of intersegmental vessels”. The “inhibition … (number of primary hyaloid vessels)” value in data set [1] (setting [5]) is “significantly inhibits developmental angiogenesis of zebrafish hyaloid vessels; also recorded: does inhibit developmental angiogenesis of the zebrafish hyaloid vasculature in a statistically significant manner”.

For the compound `Oc1ccccc1/C=C/c1ccccn1` [Compound 1, (E)-2-[2-(Pyridin-2-yl)vinyl]phenol], the “inhibition … (number of primary hyaloid vessels)” value in data set [1] (setting [5]) is “inhibit developmental angiogenesis of the zebrafish hyaloid vasculature in a statistically significant manner”.

As to `Cl.Oc1ccccc1C#Cc1cnccn1` [Compound 20, 2-[2-(pyrazin-2-yl)ethynyl]phenol hydrochloride], in data set [4], the “angiogenesis (sprout formation) in aortic rings” value is recorded as “block angiogenesis (sprout formation); also recorded: inhibit the formation of sprouts in a statistically significant manner”. In addition, the “inhibition … (number of intersegmental vessels)” value in data set [2] was “inhibit developmental angiogenesis of zebrafish intersegmental vessels in a statistically significant manner”. In addition, in data set [3], the “cell viability (MTT assay)” value is listed as “does not affect cell viability”. Moreover, the “inhibition … (number of primary hyaloid vessels)” value in data set [1] (setting [5]) and in data set [1] (setting [6]) was “inhibit developmental angiogenesis of the zebrafish hyaloid vasculature in a statistically significant manner” in each case.
